Experimental data from patent publication US10155987B2, “Methods of predicting resistance to JAK inhibitor therapy” (Dana-Farber Cancer Institute, Inc., priority 2012, dated 2018).
Values belong to the molecule of their own block, whether it stands above or below them.

Tests used:
[1] = tested on: BaF3.EpoR cells expressing JAK2V617F with G935R mutation; test: Cell growth in response to JAK2 inhibitors, G935R mutant; format: cell-based, murine
[2] = tested on: BaF3.EpoR cells expressing JAK2V617F with Y931C mutation; test: Cell growth in response to JAK2 inhibitors, Y931C mutant; format: cell-based, murine
[3] = tested on: BaF3.EpoR cells expressing JAK2V617F with Y931C, G935R, R938L, 1960V or E985K mutation; test: Cell growth in response to JAK2 inhibitors, all five resistance mutants (stated together); format: cell-based, murine; conditions: summary statement
Protocol: Cell growth in response to various drug concentrations was measured by trypan blue (Sigma) exclusion or with the CellTiter 96® AQueous One Solution Cell Proliferation Assay reagent (Promega, Madison, Wis.).
BaF3.EpoR cell lines expressing potential drug resistant mutant JAK2V617F were generated by retroviral infection, as described previously. […] Polyclonal populations of these cells were used to determine changes in growth in response to various JAK2 inhibitors.

[4] = target: JAK2 (Homo sapiens, UniProt O60674); conditions: cited from earlier work
Chain of JAK2 (O60674 whole entry, species assumed): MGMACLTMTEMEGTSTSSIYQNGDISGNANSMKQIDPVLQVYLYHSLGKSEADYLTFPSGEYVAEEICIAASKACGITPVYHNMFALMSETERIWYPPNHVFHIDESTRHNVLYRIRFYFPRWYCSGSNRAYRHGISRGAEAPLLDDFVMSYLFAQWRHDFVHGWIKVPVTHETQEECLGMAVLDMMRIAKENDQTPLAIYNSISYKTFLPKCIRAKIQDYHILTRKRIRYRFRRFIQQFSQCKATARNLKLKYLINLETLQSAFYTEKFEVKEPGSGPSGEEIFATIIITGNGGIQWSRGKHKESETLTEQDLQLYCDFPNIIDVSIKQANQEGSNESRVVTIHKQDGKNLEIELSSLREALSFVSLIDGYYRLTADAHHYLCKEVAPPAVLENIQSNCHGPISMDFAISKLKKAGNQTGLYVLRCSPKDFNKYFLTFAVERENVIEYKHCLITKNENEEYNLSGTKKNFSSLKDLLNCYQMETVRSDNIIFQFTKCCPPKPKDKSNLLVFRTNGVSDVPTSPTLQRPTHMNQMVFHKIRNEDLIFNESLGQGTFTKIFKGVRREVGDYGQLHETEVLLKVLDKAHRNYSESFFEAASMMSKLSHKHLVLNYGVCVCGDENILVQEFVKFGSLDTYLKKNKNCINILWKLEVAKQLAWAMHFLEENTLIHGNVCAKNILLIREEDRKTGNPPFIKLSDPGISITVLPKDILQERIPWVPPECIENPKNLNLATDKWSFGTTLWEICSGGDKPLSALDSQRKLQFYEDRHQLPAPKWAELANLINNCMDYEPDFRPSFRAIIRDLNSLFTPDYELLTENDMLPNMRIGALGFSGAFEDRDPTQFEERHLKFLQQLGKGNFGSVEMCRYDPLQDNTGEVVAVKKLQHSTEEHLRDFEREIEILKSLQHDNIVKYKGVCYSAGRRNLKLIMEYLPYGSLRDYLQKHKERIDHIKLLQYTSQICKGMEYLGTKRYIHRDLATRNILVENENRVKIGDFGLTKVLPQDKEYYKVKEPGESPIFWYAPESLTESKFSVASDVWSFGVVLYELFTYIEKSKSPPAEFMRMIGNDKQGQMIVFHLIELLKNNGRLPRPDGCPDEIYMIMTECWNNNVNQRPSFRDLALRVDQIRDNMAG

increase in EC50 compared to native JAK2V617F [1]: > 7 fold
EC50 ([1]; Mus musculus): > 10 µM
increase in EC50 compared to native JAK2V617F [2]: > 7 fold
EC50 ([2]; Mus musculus): > 10 µM
SMILES: Cc1cc(Nc2nc(N[C@@H](C)c3ncc(F)cn3)ncc2Cl)n[nH]1 [AZD1480]
resistance conferred by the mutations (in words) [3]: cross-resistance

SMILES: N#CCNC(=O)c1ccc(-c2ccnc(Nc3ccc(N4CCOCC4)cc3)n2)cc1 [CYT-387]
resistance conferred by the mutations (in words) [3]: cross-resistance

SMILES: C[C@H](Nc1cc(-c2cnn(C)c2)cc(Nc2cnccn2)n1)c1ccc(F)cc1 [NS018]
IC50 [4]: < 0.001 µM
selectivity for JAK2 over other JAK-family kinases [4]: 30-50 fold

SMILES: Cc1cnc(Nc2ccc(OCCN3CCCC3)cc2)nc1Nc1cccc(S(=O)(=O)NC(C)(C)C)c1 [TG101348]
resistance conferred by the mutations (in words) [3]: cross-resistance
